{"source": "paper PMC3551932", "about": "“STK295900, a Dual Inhibitor of Topoisomerase 1 and 2, Induces G2 Arrest in the Absence of DNA Damage” (PLoS ONE, 2013)", "key": {"MDA-MB-231 cells": {"test_system": "MDA-MB-231 cells", "test": "Cell growth inhibition assay, MDA-MB-231", "assay_type": "cell-based", "settings": "Homo sapiens, 96 h; Table 1; MDA-MB-231, breast adenocarcinoma; growth up to 4 days", "excerpt": "(§1) Human epitheloid cervical carcinoma HeLa cells, human breast adenocarcinoma MCF7 and MDA-MB-231cells, human hepatocellular carcinoma HepG2 cells, human colon adenocarcinoma HT-29 cells, and human colorectal carcinoma HCT-116 cells were purchased from ATCC® and maintained in DMEM medium. Human prostate carcinoma PC-3 cells (purchased from ATCC®), human gastric carcinoma SNU-484 and SNU-601(obtained from Korean Cell Line Bank (KCLB)), human leukemia K-562 and HL-60 cells (purchased from ATCC®), immortalized human prostate epithelial 267B1cells, and immortalized human embryonic lung fibroblast MRC5CV1 cells were maintained in RPMI 1640 medium whereas immortalized retinal pigment epithelial hTERT RPE-1 cells (purchased from ATCC®) were maintained in DMEM/F12 medium. All cell lines were cultured in media supplemented with 10% fetal bovine serum, 100 U/ml penicillin, and […] streptomycin at 37°C in a 5% CO2 incubator.\n(§2) Cells were seeded at the appropriate amount (1–2×10^3 cells) in triplicate in 96-well plates for 24 h and then treated with various concentrations of STK295900. Cell growth was determined by using EZ-CyTox cell viability assay kit (Daeil Lab. Service, Seoul, Korea). Ten microliters of WST solution were added to the treated cells at 24, 48, 72, and 96 h. Cells were further incubated at 37°C for 2 h and the absorbance was measured at 450 nm."}, "SNU-601 cells": {"test_system": "SNU-601 cells", "test": "Cell growth inhibition assay, SNU-601", "assay_type": "cell-based", "settings": "Homo sapiens, 96 h; Table 1; SNU-601, gastric carcinoma; growth up to 4 days", "excerpt": "as §1, §2"}, "DNA gyrase": {"test_system": "DNA gyrase", "settings": "targeting DNA gyrase; cited from earlier work"}, "HeLa cells": {"test_system": "HeLa cells", "test": "Immunoblot of cell cycle and DNA damage checkpoint proteins", "assay_type": "cell-based, human", "settings": "24 h, STK295900 1 or 5 µM, camptothecin 10 µM, etoposide 10 µM", "description": "Cells were lysed with cold RIPA buffer (50 mM Tris-HCl pH 8.0, 150 mM NaCl, 1% NP-40, 0.5% sodium deoxycholate, 0.1% SDS) containing freshly added protease inhibitor, phosphatase inhibitor (SIGMA), 1 mM DTT, and 1 mM Na3VO4 on ice for 1 h. Whole cell lysates were centrifuged at 15,000 rpm for 20 min and then the supernatant was transferred into a new tube. An appropriate amount of cell lysate was subjected to SDS-PAGE. Then the resolved proteins were transferred onto a PVDF membrane (Bio-Rad) for immunoblot analyses with specific antibodies. The proteins were detected using chemiluminescence solution (Thermo Scientific, Rockford, IL).\n(A) Flow cytometric analysis for cell cycle distribution. HeLa cells were treated with the indicated concentrations of STK295900 for 24 h. Treated cells were then stained with propidium iodide (PI) and processed for cell cycle analysis. The bar graph represents the mean percentage of each cell cycle phase ± SD from three independent experiments. * = p<0.05 versus the respective G1, S, or G2/M phase of DMSO-treated cells. (B) Mitotic index of STK295900. HeLa cells were treated with the indicated concentrations of STK295900 for 24 h. Cells were then stained with Hoechst 33342 and mitotic cells were counted. […] (C) Cell cycle related proteins expression. […] Treated cells were lysed and subjected to immunoblot analyses with antibodies against cyclin A, cyclin B1, phospho-Histone H3 (S10), and Histone H3. β-actin was used as a loading control.\n(A) G2/M transition regulated proteins expression. […] GAPDH was used as a loading control. (B) DNA damage-checkpoint related proteins. […] Images were analyzed on a fluorescence microscope."}, "PC-3 cells": {"test_system": "PC-3 cells", "test": "Cell growth inhibition assay, PC-3", "assay_type": "cell-based", "settings": "Homo sapiens, 96 h; Table 1; PC-3, prostate carcinoma; growth up to 4 days", "excerpt": "as §1, §2"}, "K-562 cells": {"test_system": "K-562 cells", "test": "Cell growth inhibition assay, K-562", "assay_type": "cell-based", "settings": "Homo sapiens, K562, 96 h; Table 1; K-562, leukemia; growth up to 4 days", "excerpt": "as §1, §2"}, "human topoisomerase 2α": {"biological_target": "human topoisomerase 2α (Homo sapiens, UniProt P11388)", "sequence (P11388 whole entry)": "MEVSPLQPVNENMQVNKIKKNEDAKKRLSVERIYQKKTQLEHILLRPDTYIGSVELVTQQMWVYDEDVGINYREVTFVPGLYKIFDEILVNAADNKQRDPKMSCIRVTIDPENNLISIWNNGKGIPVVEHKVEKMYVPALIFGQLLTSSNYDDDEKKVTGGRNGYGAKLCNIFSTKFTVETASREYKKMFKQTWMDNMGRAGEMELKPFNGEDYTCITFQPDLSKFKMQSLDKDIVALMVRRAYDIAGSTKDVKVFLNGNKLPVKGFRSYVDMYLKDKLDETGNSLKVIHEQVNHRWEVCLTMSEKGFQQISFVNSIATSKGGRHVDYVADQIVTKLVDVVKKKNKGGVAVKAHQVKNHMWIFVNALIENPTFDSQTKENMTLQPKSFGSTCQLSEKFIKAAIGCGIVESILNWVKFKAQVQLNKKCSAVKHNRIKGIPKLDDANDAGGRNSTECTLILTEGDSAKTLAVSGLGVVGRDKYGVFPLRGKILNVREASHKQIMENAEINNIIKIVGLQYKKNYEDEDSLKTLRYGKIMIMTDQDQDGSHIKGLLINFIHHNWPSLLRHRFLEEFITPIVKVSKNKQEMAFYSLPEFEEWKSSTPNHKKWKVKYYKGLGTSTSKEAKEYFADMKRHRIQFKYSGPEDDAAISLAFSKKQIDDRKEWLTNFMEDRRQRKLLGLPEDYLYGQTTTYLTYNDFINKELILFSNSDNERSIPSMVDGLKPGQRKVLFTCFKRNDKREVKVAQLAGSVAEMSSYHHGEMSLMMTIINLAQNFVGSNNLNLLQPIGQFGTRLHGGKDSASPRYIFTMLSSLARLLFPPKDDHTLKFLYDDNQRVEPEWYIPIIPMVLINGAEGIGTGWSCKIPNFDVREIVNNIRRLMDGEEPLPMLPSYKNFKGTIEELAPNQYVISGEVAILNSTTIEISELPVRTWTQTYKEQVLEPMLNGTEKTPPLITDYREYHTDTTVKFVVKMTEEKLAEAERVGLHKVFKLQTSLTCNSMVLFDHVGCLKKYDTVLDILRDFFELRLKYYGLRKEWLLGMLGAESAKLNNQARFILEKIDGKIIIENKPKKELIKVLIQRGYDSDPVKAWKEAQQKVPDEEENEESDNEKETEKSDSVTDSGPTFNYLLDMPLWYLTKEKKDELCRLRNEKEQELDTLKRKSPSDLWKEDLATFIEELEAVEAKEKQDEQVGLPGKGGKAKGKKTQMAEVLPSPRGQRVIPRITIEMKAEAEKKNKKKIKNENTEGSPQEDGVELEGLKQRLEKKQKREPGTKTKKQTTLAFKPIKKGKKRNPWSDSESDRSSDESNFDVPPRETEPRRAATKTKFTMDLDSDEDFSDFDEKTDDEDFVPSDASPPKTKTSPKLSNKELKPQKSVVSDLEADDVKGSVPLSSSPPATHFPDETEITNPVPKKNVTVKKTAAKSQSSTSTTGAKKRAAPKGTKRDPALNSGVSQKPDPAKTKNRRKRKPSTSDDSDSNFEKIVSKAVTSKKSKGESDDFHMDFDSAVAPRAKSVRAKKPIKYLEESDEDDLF", "test": "Supercoiled DNA relaxation assay for topoisomerase 2α", "assay_type": "biochemical", "settings": "pBR322, 37°C, 30 min", "description": "After incubation, the reaction was terminated by addition of 2 µl of 10% SDS. The reaction mixtures were treated with 50 µg/ml proteinase K for 30 min at 37°C and then DNA was extracted with CIA (chloroform:isoamyl alcohol, 24∶1). Samples were resolved by electrophoresis on a 1% agarose gel. After staining the electrophoresed gel with ethidium bromide, DNA bands were visualized by UV light and photographed on Gel Doc XR.\nSupercoiled DNA relaxation assay for (A) topoisomerase 1 (Top 1) and (B) topoisomerase 2 (Top 2). Supercoiled pBR322 plasmid DNA was incubated at 37°C for 30 min with Top 1 enzyme (A) or Top 2α (B) in the presence of various concentrations of indicated compounds. DNA samples were separated by electrophoresis on a 1% agarose gel, stained with ethidium bromide, and visualized by UV light. (−), supercoiled DNA alone; oc, open circular; sc, supercoiled. […] HeLa cells were pretreated with 10 µM of STK295900 for 30 min and then incubated with the indicated concentrations of camptothecin for 1 h. Treated cells were lysed and subjected to immunoblot analyses with antibody against γ-H2A.X. β-actin was used as a loading control. […] HeLa cells were pretreated with STK295900 at 10, 20, 30, or 50 µM or ICRF-193 at 10 µM for 30 min. […] Treated cells were then lysed and subjected to immunoblot analyses with antibody against γ-H2A.X. β-actin was used as a loading control."}}, "note": "pIC50: −log10 of the molar value.", "data": [{"compound": "Nc1ccc(-c2nc3ccc(-c4ccc5nc(-c6ccc(N)cc6)[nH]c5c4)cc3[nH]2)cc1", "note": "[STK295900, 4,4′-(3H,3′H-5,5′-bibenzimidazole-2,2′-diyl)dianiline]", "values": [{"measurement": "pIC50", "setting": "MDA-MB-231 cells", "result": 6.29}, {"measurement": "pIC50", "setting": "SNU-601 cells", "result": 5.66}, {"measurement": "anti-staphylococcal activity", "setting": "DNA gyrase", "result": "potent anti-staphylococcal agent"}, {"measurement": "p53 and p21 levels", "setting": "HeLa cells", "result": "did not induce upregulation of p53 but marginally affected p21 level"}, {"measurement": "phosphorylation-dependent activation of ATM (S1981), ATR (S428), Chk1 (S345), and Chk2 (T68)", "setting": "HeLa cells", "result": "no increase in phosphorylations of ATM, ATR, Chk1, and Chk1"}, {"measurement": "Phosphorylation of Cdk1 at T161", "setting": "HeLa cells; nocodazole 200 ng/ml", "result": "dose-dependent increase"}, {"measurement": "Wee1 and Cdc25C levels", "setting": "HeLa cells; nocodazole 200 ng/ml", "result": "no change in Wee1 and Cdc25C levels"}, {"measurement": "cyclin A and cyclin B1 levels", "setting": "HeLa cells; nocodazole 200 ng/ml", "result": "accumulations of cyclin A and cyclin B1"}, {"measurement": "inhibitory phosphorylation of Cdk1 (T14 and Y15)", "setting": "HeLa cells; nocodazole 200 ng/ml", "result": "dose-dependent increase"}, {"measurement": "pIC50", "setting": "PC-3 cells", "result": 5.57}, {"measurement": "pIC50", "setting": "K-562 cells", "result": 5.86}, {"measurement": "Top 2α-mediated DNA relaxation", "setting": "human topoisomerase 2α", "result": "inhibited Top 2α-mediated DNA relaxation"}]}]}
